ChEMBL document CHEMBL5046244, “Targeted Covalent Inhibition of Small CTD Phosphatase 1 to Promote the Degradation of the REST Transcription Factor in Human Cells” (J Med Chem, 2022)
The source made the active and inactive calls. No cut-off for these calls is given here.

Experiments:
HEK293 [1] = assay: Downregulation of REST protein expression in HEK293 cells at 10 uM incubated for 48 to 72 hrs by immunoblot analysis; assay type: functional, cell-based; details: Homo sapiens, time lower […], time upper 72.0 hrs
[2] = Downregulation of REST protein expression in HEK293 cells at 10 uM incubated for 6 hrs by immunoblot analysis relative to control; assay type: functional, Homo sapiens
[3] = Downregulation of REST protein expression in HEK293 cells at 10 uM incubated for 12 hrs by immunoblot analysis relative to control; assay type: functional, Homo sapiens
[4] = molecular target: T1, Tyrosine-protein phosphatase non-receptor type 2 (Homo sapiens) (UniProt P17706); assay: Inhibition of TCPTP (unknown origin) at 25 to 30 uM; details: dose 25-30 µM
T1 sequence (whole entry): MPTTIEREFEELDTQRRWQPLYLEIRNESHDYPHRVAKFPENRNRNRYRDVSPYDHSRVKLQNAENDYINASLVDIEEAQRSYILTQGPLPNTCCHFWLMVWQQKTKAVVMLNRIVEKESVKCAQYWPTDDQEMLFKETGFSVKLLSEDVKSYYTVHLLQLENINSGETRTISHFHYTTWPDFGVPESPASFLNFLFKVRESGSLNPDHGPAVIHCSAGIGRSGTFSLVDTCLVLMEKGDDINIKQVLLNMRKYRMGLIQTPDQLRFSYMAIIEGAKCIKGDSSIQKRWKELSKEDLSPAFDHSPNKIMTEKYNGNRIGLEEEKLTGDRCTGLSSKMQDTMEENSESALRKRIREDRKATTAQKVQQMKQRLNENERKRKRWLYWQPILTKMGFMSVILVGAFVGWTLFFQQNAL

Homo sapiens [5] = species on record: Homo sapiens; assay: Covalent inhibition of human SCP1 C148A mutant using pNPP as substrate preincubated for 0.5 to 8 hrs followed by substrate addition by absorbance based analysis; details: time 0.5-8 hrs
Homo sapiens [6] = species on record: Homo sapiens; assay: Covalent inhibition of human SCP1 C92S mutant using pNPP as substrate preincubated for 0.5 to 8 hrs followed by substrate addition by absorbance based analysis; details: time 0.5-8 hrs
Homo sapiens [7] = species on record: Homo sapiens; assay: Covalent inhibition of human SCP1 C181A mutant using pNPP as substrate preincubated for 0.5 to 8 hrs followed by substrate addition by absorbance based analysis; details: time 0.5-8 hrs
Homo sapiens [8] = species on record: Homo sapiens; assay: Covalent binding affinity to human SCP1 C181A mutant assessed as covalent adduct formation incubated for overnight by MALDI-TOF analysis
Homo sapiens [9] = species on record: Homo sapiens; assay: Covalent binding affinity to human SCP1 C92 mutant assessed as covalent adduct formation incubated for overnight by MALDI-TOF analysis
[10] = molecular target: T2, Tyrosine-protein phosphatase non-receptor type 1 (Homo sapiens) (UniProt P18031); assay: Inhibition of human PTP1B (1 to 321 residues) expressed in Escherichia coli BL21 (DE3) using pNPP as substrate at up to 200 uM preincubated for 4 hrs followed by substrate addition by absorption based analysis; details: dose microM <=200, time 4.0 hrs
T2 sequence (whole entry): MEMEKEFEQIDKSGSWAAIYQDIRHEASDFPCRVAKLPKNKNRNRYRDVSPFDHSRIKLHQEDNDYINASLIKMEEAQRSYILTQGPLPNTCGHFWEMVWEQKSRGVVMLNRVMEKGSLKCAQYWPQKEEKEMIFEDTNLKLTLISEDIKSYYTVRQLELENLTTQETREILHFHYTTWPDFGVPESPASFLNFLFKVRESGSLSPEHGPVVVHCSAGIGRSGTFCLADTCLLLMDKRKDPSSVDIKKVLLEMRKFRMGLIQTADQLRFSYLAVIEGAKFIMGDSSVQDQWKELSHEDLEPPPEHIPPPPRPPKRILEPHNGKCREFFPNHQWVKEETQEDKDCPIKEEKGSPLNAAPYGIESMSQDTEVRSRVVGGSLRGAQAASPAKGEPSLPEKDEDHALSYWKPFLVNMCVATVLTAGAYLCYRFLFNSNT

[11] = molecular target: T3, Receptor-type tyrosine-protein phosphatase C (Homo sapiens) (UniProt P08575); assay: Inhibition of CD45 (unknown origin) at 25 to 30 uM; details: dose 25-30 µM
T3 sequence (whole entry): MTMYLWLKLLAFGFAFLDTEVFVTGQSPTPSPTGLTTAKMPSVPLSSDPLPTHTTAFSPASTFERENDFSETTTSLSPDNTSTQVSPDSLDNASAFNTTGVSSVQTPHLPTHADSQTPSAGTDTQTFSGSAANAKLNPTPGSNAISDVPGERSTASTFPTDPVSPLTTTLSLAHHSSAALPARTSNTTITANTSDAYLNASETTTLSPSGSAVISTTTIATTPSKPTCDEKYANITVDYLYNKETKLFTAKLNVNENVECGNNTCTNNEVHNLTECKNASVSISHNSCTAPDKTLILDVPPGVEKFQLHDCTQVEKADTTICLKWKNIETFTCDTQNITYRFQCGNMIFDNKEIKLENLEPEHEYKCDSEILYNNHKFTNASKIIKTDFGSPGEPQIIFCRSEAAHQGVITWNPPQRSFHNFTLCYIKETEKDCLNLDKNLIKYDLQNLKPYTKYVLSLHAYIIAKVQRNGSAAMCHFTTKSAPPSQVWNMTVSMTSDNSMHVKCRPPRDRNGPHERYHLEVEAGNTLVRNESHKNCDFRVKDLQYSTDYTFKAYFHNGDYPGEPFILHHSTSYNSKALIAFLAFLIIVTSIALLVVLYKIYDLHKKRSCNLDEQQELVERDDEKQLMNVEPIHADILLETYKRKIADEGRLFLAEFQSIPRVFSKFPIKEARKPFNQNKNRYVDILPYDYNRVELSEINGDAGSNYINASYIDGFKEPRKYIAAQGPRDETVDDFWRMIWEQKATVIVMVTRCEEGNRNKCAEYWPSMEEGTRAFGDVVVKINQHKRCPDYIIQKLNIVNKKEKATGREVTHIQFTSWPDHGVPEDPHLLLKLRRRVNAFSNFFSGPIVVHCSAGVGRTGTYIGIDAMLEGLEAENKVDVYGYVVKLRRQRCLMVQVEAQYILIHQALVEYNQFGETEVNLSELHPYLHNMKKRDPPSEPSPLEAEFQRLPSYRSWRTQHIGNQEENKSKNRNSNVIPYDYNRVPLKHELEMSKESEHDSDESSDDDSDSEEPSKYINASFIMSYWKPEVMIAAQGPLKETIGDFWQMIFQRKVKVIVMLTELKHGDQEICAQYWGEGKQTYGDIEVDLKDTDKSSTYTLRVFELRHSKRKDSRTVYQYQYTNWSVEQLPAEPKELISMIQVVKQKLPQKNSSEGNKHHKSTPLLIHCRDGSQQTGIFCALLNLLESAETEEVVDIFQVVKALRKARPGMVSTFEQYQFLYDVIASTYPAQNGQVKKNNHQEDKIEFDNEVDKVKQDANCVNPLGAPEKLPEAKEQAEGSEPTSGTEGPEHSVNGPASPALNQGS

[12] = molecular target: Dual specificity protein phosphatase 3 (Homo sapiens) (UniProt P51452); assay: Inhibition of VHR (unknown origin) at 25 to 30 uM; details: dose 25-30 µM
Chain of Dual specificity protein phosphatase 3 (Homo sapiens) (P51452 whole entry, looked up): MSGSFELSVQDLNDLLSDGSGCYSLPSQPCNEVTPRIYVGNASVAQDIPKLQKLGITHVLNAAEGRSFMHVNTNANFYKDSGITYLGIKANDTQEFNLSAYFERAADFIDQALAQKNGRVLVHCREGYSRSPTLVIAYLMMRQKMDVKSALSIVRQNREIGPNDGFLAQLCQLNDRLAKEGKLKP

[13] = molecular target: T4, Tyrosine-protein phosphatase non-receptor type 22 (Homo sapiens) (UniProt Q9Y2R2); assay: Inhibition of LYP (unknown origin) at 25 to 30 uM; details: dose 25-30 µM
T4 sequence (whole entry): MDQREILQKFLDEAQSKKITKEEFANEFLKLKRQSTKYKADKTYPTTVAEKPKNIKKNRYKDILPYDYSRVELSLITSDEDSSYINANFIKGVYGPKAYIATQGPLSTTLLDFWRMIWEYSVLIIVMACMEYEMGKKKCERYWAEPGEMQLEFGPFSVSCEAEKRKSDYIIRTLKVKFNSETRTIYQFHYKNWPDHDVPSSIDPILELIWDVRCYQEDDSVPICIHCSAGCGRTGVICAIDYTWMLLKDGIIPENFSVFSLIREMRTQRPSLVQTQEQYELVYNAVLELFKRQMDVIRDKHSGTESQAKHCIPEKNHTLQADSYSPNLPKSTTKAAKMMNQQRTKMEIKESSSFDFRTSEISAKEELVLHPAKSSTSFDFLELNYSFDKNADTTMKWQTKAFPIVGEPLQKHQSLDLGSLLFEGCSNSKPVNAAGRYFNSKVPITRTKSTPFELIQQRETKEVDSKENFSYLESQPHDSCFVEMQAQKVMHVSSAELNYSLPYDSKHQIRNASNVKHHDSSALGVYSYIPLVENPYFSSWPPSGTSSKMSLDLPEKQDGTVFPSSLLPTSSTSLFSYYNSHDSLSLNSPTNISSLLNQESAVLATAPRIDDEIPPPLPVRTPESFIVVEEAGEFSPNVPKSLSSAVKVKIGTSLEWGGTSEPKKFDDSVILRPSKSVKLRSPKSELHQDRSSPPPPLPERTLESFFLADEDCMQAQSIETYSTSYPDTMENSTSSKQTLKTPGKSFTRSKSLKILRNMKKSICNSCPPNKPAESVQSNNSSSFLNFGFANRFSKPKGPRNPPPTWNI

[14] = tested on: Schizosaccharomyces pombe; assay: Time dependent inhibition of Schizosaccharomyces pombe wild type FCP1 (148 to 641 residues) using pNPP as substrate measured upto 18 hrs by absorbance based assay; details: time hrs <=18
[15] = tested on: Schizosaccharomyces pombe; assay: Inhibition of Schizosaccharomyces pombe wild type FCP1 (148 to 641 residues) assessed as reduction in enzymatic activity using pNPP as substrate at 100 uM measured up to 18 hrs by absorbance based assay relative to control; details: time hrs <=18
[16] = Downregulation of REST protein expression in HEK293 cells incubated for 3 days with media replenishment for every 24 hrs by immunoblot analysis; assay type: functional, cell-based; details: Homo sapiens
[17] = Downregulation of REST protein expression in HEK293 cells at 3 uM incubated for 3 days with media replenishment for every 24 hrs by immunoblot analysis relative to control; assay type: functional, Homo sapiens; details: time 3 day
[18] = Downregulation of REST protein expression in HEK293 cells at 5 uM incubated for 3 days with media replenishment for every 24 hrs by immunoblot analysis relative to control; assay type: functional, Homo sapiens; details: time 3 day
[19] = Downregulation of REST protein expression in HEK293 cells at 10 uM incubated for 3 days with media replenishment for every 24 hrs by immunoblot analysis relative to control; assay type: functional, Homo sapiens; details: time 3 day
[20] = Downregulation of REST protein expression in HEK293 cells transfected with wild type SCP1 at 10 uM incubated for 48 hrs with media replenishment for every 24 hrs by immunoblot analysis relative to control; assay type: functional, Homo sapiens
HEK293 [21] = assay: Recovery of REST protein expression in HEK293 cells at 10 uM incubated for 2 days with media replenishment for every 24 hrs followed by compound washout and measured after 12 hrs by immunoblot analysis relative to control; assay type: functional, Homo sapiens; details: time 2 day
HEK293 [22] = assay: Recovery of REST protein expression in HEK293 cells at 10 uM incubated for 2 days with media replenishment for every 24 hrs followed by compound washout and measured after 24 to 48 hrs by immunoblot analysis relative to control; assay type: functional, Homo sapiens; details: time 2 day
HEK293 [23] = assay: Recovery of REST protein expression in HEK293 cells at 10 uM incubated for 2 days with media replenishment for every 24 hrs followed by compound washout and measured after 3 days by immunoblot analysis relative to control; assay type: functional, Homo sapiens; details: time 2 day
[24] = Upregulation of DYRK1a mRNA expression in HEK293 cells assessed as fold increase by qRT-PCR analysis; assay type: functional, Homo sapiens
[25] = Upregulation of ELAVL1 mRNA expression in HEK293 cells assessed as fold increase by qRT-PCR analysis; assay type: functional, Homo sapiens
[26] = Upregulation of USP37 mRNA expression in HEK293 cells assessed as fold increase by qRT-PCR analysis; assay type: functional, Homo sapiens
[27] = Upregulation of CELSR3 mRNA expression in HEK293 cells assessed as fold increase by qRT-PCR analysis; assay type: functional, Homo sapiens
[28] = Upregulation of SCN2 mRNA expression in HEK293 cells assessed as fold increase by qRT-PCR analysis; assay type: functional, Homo sapiens
[29] = molecular target: T5, Tyrosine-protein phosphatase non-receptor type 11 (Homo sapiens) (UniProt Q06124); assay: Inhibition of SHP2 (unknown origin) at 25 to 30 uM; details: dose 25-30 µM
T5 sequence (whole entry): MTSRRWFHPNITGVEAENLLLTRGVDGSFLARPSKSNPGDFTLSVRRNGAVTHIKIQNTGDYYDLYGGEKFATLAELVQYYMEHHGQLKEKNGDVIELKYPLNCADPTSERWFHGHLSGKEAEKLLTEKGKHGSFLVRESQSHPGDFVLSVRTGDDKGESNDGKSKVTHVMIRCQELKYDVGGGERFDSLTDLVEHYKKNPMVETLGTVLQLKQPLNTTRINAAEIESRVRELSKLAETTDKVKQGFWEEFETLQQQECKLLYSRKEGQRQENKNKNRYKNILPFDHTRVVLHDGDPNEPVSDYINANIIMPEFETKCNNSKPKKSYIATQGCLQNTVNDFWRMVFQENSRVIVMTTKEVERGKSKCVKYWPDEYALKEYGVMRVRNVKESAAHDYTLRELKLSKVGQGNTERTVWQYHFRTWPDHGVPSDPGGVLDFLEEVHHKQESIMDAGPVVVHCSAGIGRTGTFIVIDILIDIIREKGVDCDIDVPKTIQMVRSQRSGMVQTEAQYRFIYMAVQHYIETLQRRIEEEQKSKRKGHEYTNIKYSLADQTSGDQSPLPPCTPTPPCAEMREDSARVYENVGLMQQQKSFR

Homo sapiens [30] = species on record: Homo sapiens; assay: Inhibition of PP1 (unknown origin) using pNPP as substrate incubated for 4 hrs by absorbance based analysis

O=C(NCCCNS(=O)(=O)c1ccc(OC(F)(F)F)cc1)C1=Cc2ccccc2S1(=O)=O
Activity (HEK293 [1]): Active | Activity [2]: 60% | Activity [3]: 20% | inhibition [4]: inactive | inhibition (Homo sapiens [5]): Active | inhibition (Homo sapiens [6]): inactive | inhibition (Homo sapiens [7]): Active | Activity (Homo sapiens [8]): inactive | Activity (Homo sapiens [9]): Active | inhibition [10]: inactive | inhibition [11]: inactive | inhibition [12]: inactive | inhibition [13]: inactive | inhibition [14]: inactive | inhibition [15]: 50% | EC50 [16]: 1500 nM | Activity [17]: 40% | Activity [18]: 75% | Activity [19]: 7% | Activity [20]: 80% | Activity (HEK293 [21]): 24% | Activity (HEK293 [22]): 50% | Activity (HEK293 [23]): 77% | fold change (FC) [24]: 2 | fold change (FC) [25]: 2 | fold change (FC) [26]: 2 | fold change (FC) [27]: 2 | fold change (FC) [28]: 2 | inhibition [29]: inactive | inhibition (Homo sapiens [30]): inactive
